This experiment has as its target NLRP3 (Homo sapiens, UniProt Q96P20). The experiment is described as follows: THP-1 cells pyroptosis assay (LPS + nigericin, resazurin readout). On the set-up: Seed THP-1 cells (25,000 cells/well) containing 1.0 μg/ml LPS; host or cells: THP-1 cells. The conditions noted are these: NLRP3 inhibitory activity, 1.0 μg/ml LPS, 3 hrs compound, nigericin 5 μM 1 hr. Type of experiment: cell-based. The procedure:
THP-1 cells (ATCC #TIB-202) were grown in RPMI containing L-glutamine (Gibco #11835) supplemented with 1 mM sodium pyruvate (Sigma #S8636) and penicillin (100 units/ml)/streptomycin (0.1 mg/ml) (Sigma #P4333) in 10% Fetal Bovine Serum (FBS) (Sigma #F0804). The cells were routinely passaged and grown to confluency (˜10^6 cells/ml). On the day of the experiment, THP-1 cells were harvested and resuspended into RPMI medium (without FBS). The cells were then counted and viability (>90%) checked by Trypan blue (Sigma #T8154). Appropriate dilutions were made to give a concentration of 625,000 cells/ml. To this diluted cell solution was added LPS (Sigma #L4524) to give a […] Final Assay Concentration (FAC). 40 μl of the final preparation was aliquoted into each well of a 96-well plate. The plate thus prepared was used for compound screening.
The following method step-by-step assay was followed for compound screening. • 1. Seed THP-1 cells (25,000 cells/well) containing 1.0 μg/ml LPS in 40 μl of RPMI medium (without FBS) in 96-well, black walled, clear bottom cell culture plates coated with poly-D-lysine (VWR #734-0317) • 2. Add 5 μl compound (8 points half-log dilution, with 10 μM top dose) or vehicle (DMSO 0.1% FAC) to the appropriate wells • 3. Incubate for 3 hrs at 37° C., 5% CO2 • 4. Add 5 μl nigericin (Sigma #N7143) (FAC 5 μM) to all wells • 5. Incubate for 1 hr at 37° C., 5% CO2 • 6. At the end of the incubation period, spin plates at 300×g for 3 mins and remove supernatant • 7. Then add 50 μl of resazurin (Sigma #R7017) (FAC 100 μM resazurin in RPMI medium without FBS) and incubate plates for a further 1-2 hrs at 37° C. and 5% CO2 • 8. Plates were read in an Envision reader at Ex 560 nm and Em 590 nm • 9. IC50 data is fitted to a non-linear regression equation (log inhibitor vs response-variable slope 4-parameters)
Sequence of NLRP3 (Q96P20 whole entry): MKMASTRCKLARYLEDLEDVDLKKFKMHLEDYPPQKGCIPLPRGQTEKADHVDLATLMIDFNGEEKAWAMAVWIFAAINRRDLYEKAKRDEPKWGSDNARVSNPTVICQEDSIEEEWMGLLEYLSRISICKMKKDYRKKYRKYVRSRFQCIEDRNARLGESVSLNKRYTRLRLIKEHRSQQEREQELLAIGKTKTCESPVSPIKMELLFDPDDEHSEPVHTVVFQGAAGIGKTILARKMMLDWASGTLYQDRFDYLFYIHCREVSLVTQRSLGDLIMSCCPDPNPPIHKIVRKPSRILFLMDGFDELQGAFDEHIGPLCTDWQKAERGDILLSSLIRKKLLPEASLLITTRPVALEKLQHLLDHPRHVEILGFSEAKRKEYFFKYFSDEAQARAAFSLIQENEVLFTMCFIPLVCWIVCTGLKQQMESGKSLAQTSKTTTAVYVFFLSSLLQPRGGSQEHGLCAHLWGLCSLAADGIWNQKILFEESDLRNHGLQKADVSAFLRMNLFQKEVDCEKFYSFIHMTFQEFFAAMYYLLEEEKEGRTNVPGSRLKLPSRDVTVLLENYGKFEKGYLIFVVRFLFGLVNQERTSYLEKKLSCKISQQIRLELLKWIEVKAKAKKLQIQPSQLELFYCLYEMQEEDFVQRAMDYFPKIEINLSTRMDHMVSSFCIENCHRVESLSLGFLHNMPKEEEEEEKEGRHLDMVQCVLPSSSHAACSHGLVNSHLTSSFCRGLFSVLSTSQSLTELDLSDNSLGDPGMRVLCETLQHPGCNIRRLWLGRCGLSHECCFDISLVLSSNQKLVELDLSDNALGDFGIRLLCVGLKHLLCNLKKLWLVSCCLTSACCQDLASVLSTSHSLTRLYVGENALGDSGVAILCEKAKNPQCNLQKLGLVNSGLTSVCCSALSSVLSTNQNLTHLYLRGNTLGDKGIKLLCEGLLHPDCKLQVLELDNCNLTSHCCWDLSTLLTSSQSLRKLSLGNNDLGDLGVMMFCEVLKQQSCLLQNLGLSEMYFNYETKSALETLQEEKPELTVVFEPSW
Regarding `CC1(C)COc2cc(ccn2)-c2ccc3c(c2CC(=O)NS(=O)(=O)c2nn1cc2F)CCC3` [Example 6, 16-fluoro-19,19-dimethyl-21-oxa-14λ^6-thia-13,18,23,27-tetraazapentacyclo[20.3.1.1^15,18.0^2,10.0^5,9]heptacosa-1(25),2,4,9,15(27),16,22(26),23-octaene-12,14,14-trione], the IC50 fell in the range of 5000 to 10000 nM.
For the molecule `CC(C)c1cccc2c1CC(=O)NS(=O)(=O)c1cccc(c1)CCOc1cc-2ccn1` [Example 7], the IC50 was in the range of 1000 to 5000 nM.
The figure for `CC(C)c1cccc2c1CC(=O)NS(=O)(=O)c1nn(cc1F)CCOc1cc-2ccn1` [Example 8] is 1000 to 5000 nM.
For the molecule `O=C1Cc2c(ccc3c2CCC3)-c2ccnc(c2)OCCc2cccc(c2)S(=O)(=O)N1` [Example 9], the half-maximal inhibitory concentration (IC50) is 5000 to 10000 nM.
As for `CC(C)c1cc(F)cc2c1CC(=O)NS(=O)(=O)c1nn(cc1F)CCOc1cc-2ccn1` [Example 14], the figure is 1000 to 5000 nM; as for `CC(C)c1cc(F)cc2c1CC(=O)NS(=O)(=O)c1cccnc1OCCCOc1cc-2ccn1` [Example 18], 1000 to 5000 nM; as for `Cc1nn2c(C)c1S(=O)(=O)NC(=O)Cc1c(cc(F)cc1C(C)C)-c1ccnc(c1)OCC2(C)C` [Example 23], 5000 to 10000 nM.
The figure for `CC(C)c1cc(F)cc2c1CC(=O)NS(=O)(=O)c1cc(ccc1F)CCOc1cc-2ccn1` [Example 26] is 1000 to 5000 nM; for `CC(C)c1cccc2c1CC(=O)NS(=O)(=O)c1cccc(c1)C(C)(C)COc1cc-2ccn1` [Example 28] it is 1000 to 5000 nM.
The figure for `CC(C)c1cc(F)cc2c1CC(=O)NS(=O)(=O)c1cc(cc(C3CC3)c1)CCOc1cc-2ccn1` [Example 30, 14-cyclopropyl-4-fluoro-6-(propan-2-yl)-19-oxa-11λ^6-thia-10,21-diazatetracyclo[18.3.1.11^2,16.0^2,7]pentacosa-1(23),2(7),3,5,12(25),13,15,20(24),21-nonaene-9,11,11-trione] is 500 to 1000 nM.
As for `CC(C)c1cccc2c1CC(=O)NS(=O)(=O)c1ccnn1CCCCCOc1cc-2ccn1` [Example 43, 6-(propan-2-yl)-22-oxa-11λ^6-thia-10,15,16,24-tetraazatetracyclo-[21.3.1.0^2,7.0^12,16]heptacosa-1(26),2(7),3,5,12,14,23(27),24-octaene-9,11,11-trione], the 50% inhibitory concentration (IC50) lay in the range of 1000 to 5000 nM.
Regarding `CC(C)c1cccc2c1CC(=O)NS(=O)(=O)N1CCCC(C1)N(C)CCOc1cc-2ccn1` (centres unmarked) [Example 45, 17-methyl-6-(propan-2-yl)-20-oxa-11λ^6-thia-10,12,17,22-tetraaza-tetracyclo[19.3.1.1^12,16.0^2,7]hexacosa-1(24),2(7),3,5,21(25),22-hexaene-9,11,11-trione], the half-inhibitory concentration (IC50) was in the range of 1000 to 5000 nM.
As for `CC(C)c1cc(C#N)cc2c1CC(=O)NS(=O)(=O)c1cnn(c1)C(C)(C)COc1cc-2ccn1` [Example 46, 6-isopropyl-16,16-dimethyl-9,11,11-trioxo-18-oxa-11λ^6-thia-10,14,15,20-tetrazatetra-cyclo[17.3.1.1^12,15.0^2,7]tetracosa-1(23),2(7),3,5,12(24),13,19,21-octaene-4-carbonitrile], the figure is 1000 to 5000 nM; as for `CC(C)c1cc(OC(F)F)cc2c1CC(=O)NS(=O)(=O)c1cnn(c1)C(C)(C)COc1cc-2ccn1` [Example 47, 4-(difluoromethoxy)-6-isopropyl-16,16-dimethyl-11,11-dioxo-18-oxa-11λ^6-thia-10,14,15,20-tetrazatetracyclo[17-3-1-1^12,15.0^2,7]tetracosa-1(23),2(7),3,5,12(24), 13,19,21-octaen-9-one], 100 to 500 nM.
Take `CC(C)c1c(F)c(C#N)cc2c1CC(=O)NS(=O)(=O)c1cnn(c1)C(C)(C)COc1cc-2ccn1` [Example 48, 5-fluoro-6-isopropyl-16,16-dimethyl-9,11,11-trioxo-18-oxa-11λ^6-thia-10,14,15,20-tetrazatetracyclo[17-3-1-1^12,15.0^2,7]tetracosa-1(23),2(7),3,5,12(24),13,19,21-octaene-4-carbonitrile]: the IC50 was 1000 to 5000 nM.
The figure for `CC(C)c1c(F)c(OC(F)F)cc2c1CC(=O)NS(=O)(=O)c1cnn(c1)C(C)(C)COc1cc-2ccn1` [Example 49, 4-(difluoromethoxy)-5-fluoro-6-isopropyl-16,16-dimethyl-11,11-dioxo-18-oxa-11λ^6-thia-10,14,15,20-tetrazatetracyclo[17.3.1.1^12,15.0^2,7]tetracosa-1(23),2(7),3,5, 12(24),13,19,21-octaen-9-one] is 500 to 1000 nM; for `CC(C)c1cc(F)cc2c1CC(=O)NS(=O)(=O)c1nn(cc1C(=O)N(C)C)C(C)(C)COc1cc-2ccn1` [Example 50, 4-fluoro-6-isopropyl-N,N,16,16-tetramethyl-9,11,11-trioxo-18-oxa-11λ^6-thia-10,15,20,24-tetrazatetracyclo[17.3.1.1^12,15.0^2,7]tetracosa-1(23),2(7),3,5,12(24),13,19, 21-octaene-13-carboxamide] it is 5000 to 10000 nM.
The figure for `COCc1cc2c(c(C(C)C)c1)CC(=O)NS(=O)(=O)c1cnn(c1)C(C)(C)COc1cc-2ccn1` [Example 51, 6-isopropyl-4-(methoxymethyl)-16,16-dimethyl-11,11-dioxo-18-oxa-11λ^6-thia-10,14,15,20-tetrazatetracyclo[17-3-1-1^12,15.0^2,7]tetracosa-1(23),2(7),3,5,12(24),13,19, 21-octaen-9-one] is at most 100 nM; for `COCc1cc2c(c(C(C)C)c1F)CC(=O)NS(=O)(=O)c1cnn(c1)C(C)(C)COc1cc-2ccn1` [Example 52, 5-fluoro-6-isopropyl-4-(methoxymethyl)-16,16-dimethyl-11,11-dioxo-18-oxa-11λ^6-thia-10,14,15,20-tetrazatetracyclo[17.3.1.1^12,15.0^2,7]tetracosa-1(23),2(7),3,5, 12(24),13,19,21-octaen-9-one] it is 100 to 500 nM.
The figure for `CC(C)c1cc(F)cc2c1CC(=O)NS(=O)(=O)c1nn(c(CN3CCN(C)CC3)c1F)C(C)(C)COc1cc-2ccn1` [Example 53, 4,13-difluoro-6-isopropyl-16,16-dimethyl-14-[(4-methylpiperazin-1-yl)-methyl]-11,11-dioxo-18-oxa-11λ^6-thia-10,15,20,24-tetrazatetracyclo[17.3.1.1^12,15.0^2,7]-tetracosa-1(23),2(7),3,5,12(24),13,19,21-octaen-9-one] is at most 100 nM; for `CC(C)c1cc(F)cc2c1CC(=O)NS(=O)(=O)c1nn(c(C(=O)N3CCN(C)CC3)c1F)C(C)(C)COc1cc-2ccn1` [Example 54, 4,13-difluoro-6-isopropyl-16,16-dimethyl-14-(4-methylpiperazine-1-carbonyl)-11,11-dioxo-18-oxa-11λ^6-thia-10,15,20,24-tetrazatetracyclo[17.3.1.1^12,15.0^2,7]-tetracosa-1(23),2(7),3,5,12(24),13,19,21-octaen-9-one] it is 500 to 1000 nM; for `CC(C)c1cc(F)cc2c1CC(=O)NS(=O)(=O)c1nn(c(CN3CCOCC3)c1F)C(C)(C)COc1cc-2ccn1` [Example 55, 4,13-difluoro-6-isopropyl-16,16-dimethyl-14-(morpholinomethyl)-11,11-dioxo-18-oxa-11λ^6-thia-10,15,20,24-tetrazatetracyclo[17.3.1.1^12,15.0^2,7]tetracosa-1(23),2(7),3,5,12(24),13,19,21-octaen-9-one] it is 100 to 500 nM.
For the molecule `CC(C)c1cc(F)cc2c1CC(=O)NS(=O)(=O)c1cnn(c1)C(C)(C)CNc1cc-2ccn1` [Example 56, 4-fluoro-6-isopropyl-16,16-dimethyl-11,11-dioxo-11λ^6-thia-10,14,15,18, 20-pentazatetracyclo[17.3.1.1^12,15.0^2,7]tetracosa-1(23),2(7),3,5,12(24),13,19,21-octaen-9-one], the IC50 is at most 100 nM.

The values above are taken from patent publication US20220389031A1, “MACROCYCLIC SULFONYLAMIDE DERIVATIVES USEFUL AS NLRP3 INHIBITORS” (Inflazome Limited, priority 2019, published 2022).
